Laboratory results as given in US20110185440A1, “CISD2-Knockout Mice and Uses Thereof” (NATIONAL YANG-MING UNIVERSITY, priority 2006, published 2011).

Columns and labels:
Cisd2 knockout mice [1] = assay: Body weight of Cisd2 knockout mice after oral resveratrol treatment; assay type: in vivo, mouse; conditions: 30 mg/kg/day oral from 4- to 12-week old; effect after 8-week old; P<0.05 vs untreated control
Procedure: (17A) Oral administration of resveratrol (30 mg/kg/day) to Cisd2 knockout mice from 4- to 12-week old. (17B) To analyze the body weight of the Cisd2 knockout mice after resveratrol treatment and compare to 4-week old wild-type mice. Values represent mean±s.d from at least three male samples. Asterisks indicate statistically significant differences compare with untreated control. (*, P<0.05) Resveratrol (30 mg/kg/day) was administered by oral to Cisd2 knockout mice from 4- to 12-week old. The body weight of the Cisd2 knockout mice was analyzed after resveratrol treatment and comparing to 4-week old wild-type mice (FIG. 17).

Cisd2 knockout mice [2] = assay: Muscle and neuron degeneration in Cisd2 knockout mice after resveratrol treatment (H&E staining, TEM); assay type: in vivo, mouse; conditions: 30 mg/kg/day oral from 4- to 12-week old
Source text: (18A-F) H&E staining of transverse sections of skeletal muscle dissected from the 12-week old, male Cisd2 knockout mice with (18A) untreated control, (18B) resveratrol or (18C) H2O treatment, and (18D-F) relative wild-type control. Black arrowheads indicate degenerated transverse fibers. Blue arrows indicate angular fibres which are the evidences of muscle atrophy caused by neuron degeneration. (18G) The standard quantification score of muscle atrophy. (18H) The quantification of degenerative muscle fiberin under resveratrol treated or not. About 1000 muscle fibre in random fields of H&E staining slides were examined for each mouse. Values represent mean±s.d from at least three male samples. […] Myelin sheath degeneration (asterisks) was detected only in the Cisd2 knockout mice. […] (18U) The standard quantification score of axon and myelin sheath degeneration. (18V) The quantification of degenerative sciatic nerve in wild-type, Cisd2 knockout and Cisd2 knockout mice with resveratrol treatment, respectively. […] The standard quantification score of muscle atrophy was prepared. The quantification of degenerative muscle fiberin was measured under resveratrol treated or not. […] Myelin sheath degeneration was detected only in the Cisd2 knockout mice. The standard quantification score of axon and myelin sheath degeneration was created. […]

`Oc1ccc(C=Cc2cc(O)cc(O)c2)cc1` [Resveratrol] was tested, and the “body weight of Cisd2 knockout mice” value (Cisd2 knockout mice [1]) was “significant reverse”, the “muscle degeneration of the Cisd2 knockout mice” value (Cisd2 knockout mice [2]; 12-week old male mice, skeletal muscle H&E, skeletal and cardiac muscle ultrastructure) was “partial rescue” and the “neuron degeneration of the Cisd2 knockout mice” value (Cisd2 knockout mice [2]; 12-week old mice, sciatic nerve TEM, axon and myelin sheath degeneration) was “partial rescue”.
